# Tests used:
# DC2.4 cells = assay: MHC class I cross presentation of OVA257-264 in DC2.4 cells; assay type: cell-based, murine; settings: 6 h incubation, 5 μM, 25-D1.16 antibody, flow cytometry, with or without SiO2—PO3H2
# Method: After an incubation time of 6 h, the test substances were removed by washing with phosphate-buffered saline (PBS). In the next step, the cells were incubated with CD16/CD32 antibody in order to block the non-specific binding of the detection antibody to the Fc (Fragment, crystallizable) receptor of the cells. After incubation with 25-D1.16 antibody, the amount of cross-presented OVA257-264 was quantified by flow cytometry. FIG. 16: […] Quantification was carried out by flow cytometry after labeling with 25-D1.16 detection antibody.
# influenza A virus PR8/34 = assay type: in vivo, C57BL/6 mice; settings: s.c. 24 hours before intranasal five-fold LD50 influenza A PR8/34
# [1] = Poly(I:C) loading capacity of SiO2-Arg nanoparticles (DLS, zeta potential); assay type: physicochemical; settings: SiO2-Arg loaded with poly(I:C) LMW, 0.9% NaCl
Substance,OVA257-264 MHC class I presentation (DC2.4 cells),improvement compared to the placebo group (influenza A virus PR8/34),PDI [1],Peak [1],Z ave [1]
SIINFEKL (Ovalbumin aa 258-265; listed as Gallus gallus) [OVA257-264],presented in significant amounts,–,–,–,–
polyinosinic:polycytidylic acid [poly(I:C)],–,does not show any statistically significant improvement,0.557,12.69 nm,33.83 nm

# From patent US20230272014A1, “COMPOSITION OF NANOPARTICLES AS CARRIER FOR HPV-DERIVED IMMUNOGENIC FRAGMENTS” (priority 2020, published 2023)
